The values that follow come from patent US10328079B2, “[6R]-MTHF multiple bolus administration in 5-fluorouracil based chemotherapy” (Isofol Medical AB, priority 2017, dated 2019).

Series [1] in a line: ISO-CC-005 Phase I/II trial: safety / adverse events. The series is classed as in vivo, human. The text has this: A maximum of 63 Stage IV CRC patients eligible for 1st, 2nd or 3rd line treatment are planned to be enrolled in this study disposed as follows: three to six patients in each dose cohort, and three additional patients in one dose cohort in each treatment arm according to the following study design (Table 1). ISO-CC-005 is an open clinical phase I/II tolerability and dose definition study designed to evaluate safety and define the [6R]-MTHF dose for continued development. It evaluates four doses of [6R]-MTHF in combination with 5-FU with or without the different combinations of irinotecan or oxaliplatin and bevacizumab in patients with metastatic Colorectal Cancer using 4 different protocols: • MOD+5-FU: [6R]-MTHF in combination with 5-FU only, similar to Nordic FLV protocol • MOD+[…] in combination with 5-FU and Irinotecan, similar to Nordic FLIRI protocol • MOD+FLOX: [6R]-MTHF in combination with 5-FU and Oxaliplatin, similar to Nordic FLOX protocol • MOFOX: [6R]-MTHF in combination with 5-FU and Oxaliplatin, similar to FOLFOX-6 protocol By September 2017 the gastrointestinal (GI) adverse effects (AEs) for in total 37 patients had been analyzed. Of the 37 patients, only 2 (two) patients (5.4%) reported a GI adverse event (defined as nausea, vomiting and/or dehydration) of grade 3 or greater.

For series [2], the system named is thymidylate synthase (TS). As to the kind of experiment: Historical group comparison study: incremental plasma dUrd (marker of TS inhibition) 24 h after 5-FU bolus plus folate. The series is classed as in vivo, human. The method, then: The elevation of plasma 2′-deoxyuridine (dUrd) is a marker of TS inhibition. (Ford et al. (2002) Clinical Cancer Research, 8(1): 103-109).
The historical group comparison study was conducted as follows:
All patients were treated with a standard dose of 500 mg 5-FU given as a bolus injection plus the respective folate [6R]-MTHF or LV, also given as bolus injections.
In Gothenburg (Sweden), for almost two decades, clinical, treatment and outcomes data on all patients with CRC have been collected at the local university hospital (Östra sjukhuset—Sahlgrenska Universitetssjukhuset). Plasma and tissue samples have been stored in a biobank under appropriate physical conditions for long term storage. The database and the biobank operate under the auspices of the relevant ethical and regulatory permissions. Patients having been treated with the standard 5-FU dose, 500 mg/m2 plus i.v. bolus LV, 60 mg/m2 were randomly drawn from the databank. For all patients, stored plasma samples were used for determination of dUrd.
Twenty-four patients with metastatic colorectal cancer (mCRC) treated with 5-FU plus 60 mg/m^2 LV were drawn at random from the database and levels of dUrd were determined at t0 and t24 from two treatment cycles for each patient and the mean values and standard deviations for the differences between t24 and t0 were calculated in the same way as for the [6R]-MTHF patients. Since LV is a “racemic” 50:50 mixture of the natural (S-formyl-tetrahydrofolate) and unnatural (R-formyl-tetrahydrofolate) isomers, the active isomer constitutes one half of the racemic LV doses given. The molecular weights for LV and [6R]-MTHF are very similar and therefore 60 mg of LV may be considered as equimolar with 30 mg of [6R]-MTHF.
All patients were enrolled in the ISO-CC-005 study and measured during two consecutive treatment cycles with 5-FU. Values for dUrd were measured immediately before injection of 5-FU (to) and after 24 hours (t24). Mean values and standard deviations for differences between t24 and to were calculated for the patients on each dose level of 30 and 60 mg/m^2 respectively.
The differences between all three groups were tested by means of the […] and thereafter the difference between the two equimolar groups LV 60 mg/m2 and 6R-MTHF 30 mg/m^2 was tested by means of the Mann-Whitney U test. P-values less than 0.05 were considered significant.
Plasma dUrd was determined by a method comprising liquid chromatography followed by tandem mass spectrometry broadly summarized as follows. Plasma samples were removed from −80° C. freezer, trichloroacetic acid was added to the plasma, and the samples mixed and centrifuged. The supernatant was filtered in a 10 kDa molecular weight cut-off membrane filter and again centrifuged for 30 min. The solution at the bottom of the tube was then ready for LC-MS/MS analysis. Calibration samples were prepared in the same way using blank plasma samples and different internal standard concentrations. The injection volume into LC-MS/MS was 40 μl. Deoxyuridine and chlorodeoxyuridine were ionized by electrospray negative mode. MS parameters were optimized for maximum response of all folates. A MS/MS acquisition method (multiple reaction monitoring) was utilized.

`Nc1nc2c(c(=O)[nH]1)N1CN(c3ccc(C(=O)N[C@@H](CCC(=O)O)C(=O)O)cc3)C[C@H]1CN2` [[6R]-MTHF, [6R]-5,10-methylenetetrahydrofolate]: the “safety profile compared to other patients in the study or historical control” value in series [1] (12 first-line patients) is given as “no signs of an impaired safety profile”. The “patients reporting a GI adverse event (nausea, vomiting and/or dehydration) of grade 3 or greater” value in series [1] (37 patients analyzed by September 2017 (2 patients)) is listed as 5.4%. Besides, in series [1] (ISO-CC-005 results so far), the “toxicity of 5-FU when combined with [6R]-MTHF compared to 5-FU with other folate adjuvants” value is given as “reduced”. Further, the “Mean (t24-t0) plasma dUrd” value in series [2] ([6R]-MTHF 30 mg/m^2 BSA bolus with 5-FU 500 mg/m^2, 24 hours, n=18) was 74.7 pmol/mL; in series [2] ([6R]-MTHF 60 mg/m^2 BSA bolus with 5-FU 500 mg/m^2, 24 hours, n=16), 91.8 pmol/mL. Further, in series [2] ([6R]-MTHF 30 mg/m^2 vs LV 60 mg/m^2, p=0.03), the “level of dUrd vs equimolar LV, together with 5-FU” value is recorded as “significantly higher”. Besides, the “TS inhibition from fixed doses of 5-FU vs [6R]-MTHF dose (dUrd)” value in series [2] (dUrd measurements incl. 120 mg vs 240 mg, ISO-CC-005) was “dose dependent and flattens off att very high doses”.
